Experimental data from ChEMBL document CHEMBL1201862, “PubChem BioAssay data set” (2004).
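48-hour exposure; five concentrations; linearly interpolated endpoints. GI50 marks 50% less growth.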 Calls of active or inactive are those of the source. Rule as the data show it: active = GI50 up to about 1.1 µM and inactive = higher.

Tests used:
Assay in all cases: growth of human tumour cells (NCI), 48 h
SK-OV-3 = system: SK-OV-3
EKVX = system: EKVX
T47D = system: T47D
MOLT-4 = system: MOLT-4
MCF7 = system: MCF7
SK-MEL-5 = system: SK-MEL-5
ACHN = system: ACHN
RXF 393 = system: RXF 393
IGROV-1 = system: IGROV-1
NCI/ADR-RES = system: NCI/ADR-RES
SF-539 = system: SF-539
KM12 = system: KM12
SN12C = system: SN12C
SF-295 = system: SF-295
CCRF-CEM = system: CCRF-CEM
M14 = system: M14
SK-MEL-2 = system: SK-MEL-2
HOP-62 = system: HOP-62
CAKI-1 = system: CAKI-1

Measured: GI50

Cc1nc2c(Cl)cc(Cl)cc2c(Cl)c1CCCl
inactive: SK-OV-3 > 100 µM | EKVX 78.2 µM | T47D 52.8 µM | MOLT-4 55 µM | MCF7 > 100 µM | SK-MEL-5 45.8 µM | ACHN > 100 µM | RXF 393 22.8 µM | IGROV-1 > 100 µM | NCI/ADR-RES 72.3 µM | SF-539 > 100 µM | KM12 > 100 µM | SN12C > 100 µM | SF-295 > 100 µM | CCRF-CEM 62.8 µM | M14 > 100 µM | SK-MEL-2 99.5 µM | HOP-62 > 100 µM | CAKI-1 64 µM

COc1cc2c(cc1OC)C1c3ccccc3CCN1CC2 (stereo not given)
inactive: SK-OV-3 > 100 µM | EKVX > 100 µM | T47D 75.9 µM | MOLT-4 78.3 µM | MCF7 > 100 µM | SK-MEL-5 81.1 µM | ACHN > 100 µM | RXF 393 > 100 µM | IGROV-1 53.3 µM | NCI/ADR-RES 95.7 µM | SF-539 31.1 µM | KM12 > 100 µM | SN12C 62.5 µM | SF-295 82.6 µM | CCRF-CEM > 100 µM | M14 45 µM | SK-MEL-2 > 100 µM | HOP-62 70.8 µM | CAKI-1 > 100 µM

O=C(Nc1ccccc1)OCCN=C1c2ccccc2CCc2ccccc21
inactive: SK-OV-3 23.6 µM | EKVX 33.2 µM | T47D 15.3 µM | MOLT-4 9.73 µM | MCF7 24 µM | SK-MEL-5 13.4 µM | ACHN 15.4 µM | RXF 393 19.4 µM | IGROV-1 19.1 µM | NCI/ADR-RES 19.7 µM | SF-539 18.2 µM | KM12 14.3 µM | SN12C 17.3 µM | SF-295 15.5 µM | CCRF-CEM 20.6 µM | M14 21.8 µM | SK-MEL-2 15 µM | HOP-62 19.7 µM | CAKI-1 18.5 µM

C=C(CCC/C(C)=C/C=C/[C@]1(C)CCCc2ccoc21)CC(=O)O
inactive: SK-OV-3 > 100 µM | EKVX > 100 µM | T47D > 100 µM | MOLT-4 38.7 µM | MCF7 82.6 µM | SK-MEL-5 > 100 µM | ACHN > 100 µM | RXF 393 > 100 µM | IGROV-1 > 100 µM | NCI/ADR-RES > 100 µM | SF-539 > 100 µM | KM12 > 100 µM | SN12C > 100 µM | SF-295 > 100 µM | CCRF-CEM 50 µM | M14 > 100 µM | SK-MEL-2 > 100 µM | HOP-62 > 100 µM | CAKI-1 > 100 µM

CC1NC(C(=O)O)Cc2cc(O)c(O)cc21 (stereo not given)
inactive: SK-OV-3 > 100 µM | EKVX > 100 µM | T47D > 100 µM | MOLT-4 > 100 µM | MCF7 > 100 µM | SK-MEL-5 > 100 µM | ACHN > 100 µM | RXF 393 > 100 µM | IGROV-1 > 100 µM | NCI/ADR-RES > 100 µM | SF-539 > 100 µM | KM12 > 100 µM | SN12C > 100 µM | SF-295 > 100 µM | CCRF-CEM 91.2 µM | M14 > 100 µM | SK-MEL-2 > 100 µM | HOP-62 > 100 µM | CAKI-1 > 100 µM

C[C@@H](CC(=O)OCc1ccccc1)OC1OC(COC(=O)C(C)(C)C)C(OC(=O)C(C)(C)C)C(OC(=O)C(C)(C)C)C1OC(=O)C(C)(C)C (stereo not given in full)
inactive: SK-OV-3 > 100 µM | EKVX > 100 µM | T47D > 100 µM | MOLT-4 94.4 µM | MCF7 > 100 µM | SK-MEL-5 5.28 µM | ACHN > 100 µM | RXF 393 > 100 µM | IGROV-1 > 100 µM | NCI/ADR-RES > 100 µM | SF-539 > 100 µM | KM12 > 100 µM | SN12C > 100 µM | SF-295 > 100 µM | CCRF-CEM > 100 µM | M14 > 100 µM | SK-MEL-2 > 100 µM | HOP-62 > 100 µM | CAKI-1 > 100 µM

Cc1ccc(C)c(NC(=O)C(Cc2c[nH]c3ccccc23)NC(=O)OCc2ccccc2)c1 (stereo not given)
inactive: SK-OV-3 20.1 µM | EKVX 14.5 µM | T47D 9.18 µM | MOLT-4 4.52 µM | MCF7 23.1 µM | SK-MEL-5 10.8 µM | ACHN 22.9 µM | RXF 393 6.34 µM | IGROV-1 18.2 µM | NCI/ADR-RES 11.1 µM | SF-539 8.53 µM | KM12 16.5 µM | SN12C 24.7 µM | SF-295 25.8 µM | CCRF-CEM 1.42 µM | M14 13.6 µM | SK-MEL-2 16 µM | HOP-62 48.8 µM | CAKI-1 16.4 µM

COc1ccc2c3c(c(=O)n(C)c2c1OC)C=CC(C)(C)O3
inactive: SK-OV-3 32.1 µM | EKVX 23.9 µM | T47D 25.8 µM | MOLT-4 24.4 µM | MCF7 36.8 µM | SK-MEL-5 13.3 µM | ACHN 13.7 µM | RXF 393 26.5 µM | IGROV-1 36.1 µM | NCI/ADR-RES 18 µM | SF-539 39.2 µM | KM12 21.6 µM | SN12C 12.7 µM | SF-295 36.7 µM | CCRF-CEM 23.2 µM | M14 48.3 µM | SK-MEL-2 42.6 µM | HOP-62 80.2 µM | CAKI-1 13.5 µM

CC1CCC2(C(=O)O)CCC3(C)C(=CCC4C5(C)CC(O)C(O)C(C)(CO)C5C(O)CC43C)C2C1C (stereo not given)
inactive: SK-OV-3 > 100 µM | EKVX > 89.3 µM | T47D 37.4 µM | MOLT-4 58.2 µM | MCF7 41.5 µM | SK-MEL-5 41.8 µM | ACHN > 100 µM | RXF 393 31.3 µM | IGROV-1 19.2 µM | NCI/ADR-RES > 100 µM | SF-539 39 µM | KM12 43.3 µM | SN12C 2.12 µM | SF-295 74.5 µM | CCRF-CEM 19 µM | M14 > 100 µM | SK-MEL-2 19.4 µM | HOP-62 45.4 µM | CAKI-1 > 100 µM

CCOc1ccc2c(c1)c(=O)c1c(NCCN(CC)CC)ccc3nnn2c31
inactive: SK-OV-3 > 100 µM | EKVX 83.2 µM | T47D > 100 µM | MOLT-4 3.34 µM | MCF7 12.3 µM | SK-MEL-5 16.3 µM | ACHN 15.6 µM | RXF 393 8.55 µM | IGROV-1 9.64 µM | NCI/ADR-RES 12.3 µM | SF-539 9.08 µM | KM12 14 µM | SN12C 9.82 µM | SF-295 > 35.6 µM | CCRF-CEM 4.91 µM | M14 35.2 µM | SK-MEL-2 > 100 µM | HOP-62 > 31.4 µM | CAKI-1 20.7 µM
